# Measured values: paper PMC2891776 (Journal of medicinal chemistry, 2010)
# Tests used:
# [1] = biological target: T1, hASBT (Homo sapiens, UniProt Q12908); experiment: Inhibition of taurocholate uptake in hASBT-MDCK monolayers; assay type: cell-based; details: for fold more potent than 33: ratio of Ki relative to 33
# T1 sequence (Q12908 1-348): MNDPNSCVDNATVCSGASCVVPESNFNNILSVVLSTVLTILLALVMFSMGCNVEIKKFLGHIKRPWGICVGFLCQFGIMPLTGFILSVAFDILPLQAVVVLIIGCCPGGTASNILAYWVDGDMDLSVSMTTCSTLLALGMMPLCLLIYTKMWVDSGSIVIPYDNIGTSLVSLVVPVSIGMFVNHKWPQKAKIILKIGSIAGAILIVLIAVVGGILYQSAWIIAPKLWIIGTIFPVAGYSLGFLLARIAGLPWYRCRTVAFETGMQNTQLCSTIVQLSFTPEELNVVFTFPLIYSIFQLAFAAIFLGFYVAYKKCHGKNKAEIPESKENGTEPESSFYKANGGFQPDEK
# [2] = biological target: T1, hASBT; details: previously reported; cited from earlier work
compound,measurement,setting,value
CC(CCC(=O)NC(CCC(=O)Nc1cccc(C(=O)O)c1)C(=O)OOCc1ccccc1)C1CCC2C3C(O)CC4CC(O)CCC4(C)C3CCC12C (centres unmarked) [Compound 30],hASBT inhibition potency,[1]; inhibition of taurocholate uptake,potent inhibitor
C[C@H](CCC(=O)N[C@@H](CCC(=O)Nc1ccccc1C(=O)O)C(=O)O)[C@H]1CC[C@H]2[C@@H]3[C@H](O)C[C@H]4C[C@H](O)CC[C@]4(C)[C@H]3CC[C@]12C [Compound 31],fold more potent than 33,[1],over 2 fold
C[C@H](CCC(=O)N[C@@H](CCC(=O)Nc1cccc(C(=O)O)c1)C(=O)O)[C@H]1CC[C@H]2[C@@H]3[C@H](O)C[C@H]4C[C@H](O)CC[C@]4(C)[C@H]3CC[C@]12C [Compound 32],Affinity (switch on or off),"[1]; observed affinity of dianions, molecular switch state",High (on)
same,fold more potent than 33,[1],over 2 fold
"C[C@H](CCC(=O)N[C@@H](CCC(=O)O)C(=O)O)[C@H]1CC[C@H]2[C@@H]3[C@H](O)C[C@@H]4C[C@H](O)CC[C@]4(C)[C@H]3CC[C@]12C [glu-CDCA, Glutamic acid CDCA amide]",hASBT activity,[2],poor activity
